From patent publication US20150158914A1, “PEPTIDES, CONSTRUCTS AND USES THEREFOR” (priority 2010, published 2015)
Entries after “also recorded” stand apart in the source; their conditions may differ. Ends that are not written are not given here. * marks the point of attachment. FITC = O=C1OC2(c3ccc(O)cc3Oc3cc(O)ccc32)c2ccc(NC(=S)*)cc21

Assays:
X-protein = assay: Non-reducing SDS-PAGE/Western blot of X-protein tertiary structure in HepG2 transfectants; assay type: cell-based, hepatitis B virus; conditions: peptide added thrice over 48 h, non-reducing conditions
Method: The inventors investigated how the oligomerization domain peptide (aa 16-35) antagonized X-protein-mediated function. The aim was to determine whether the peptide disrupted the tertiary structure of the X-protein. HepG2 cells were transfected with either the pCDNA3.1-HBX, pCDNA3-HBX Myc or pCDNA3-GFP plasmids and were treated thrice over 48 h with the oligomerization domain peptide (aa 16-35). Control transfectants were not treated with peptide. The nuclear subfraction was resolved by SDS-PAGE using non-reducing loading buffer to keep the disulphide bonding of the X-protein intact. The proteins were transferred onto a PVDF membrane, and probed with a mouse antihuman X-protein primary antibody, followed by a secondary goat anti-mouse HRP-conjugated antibody. […] Transfectants not treated with peptide expressed higher order forms of the X-protein, including the dimeric form at ˜34 kDa, and apparently even higher order structures (FIG. 11). In contrast, cells transfected with pCDNA3.1-HBX and pCDNA3-HBX Myc and treated with the oligomerization domain peptide expressed monomeric forms at ˜17 kDa and ˜21 kDa, respectively.

adherent TK1 T cells = assay: Peptide uptake by attached TK1 cells; assay type: cell-based
Text: As above, the lymphocytic cell line TK1 in suspension was not able to take up the X-protein cell-permeable peptide aa 16-22. Once activated, circulating lymphocytes have the ability to adhere to the vascular endothelium, to attach to antigen presenting cells, and to attach to and move through the extracellular matrix. The fact that adherent monocytes took up the peptide raised the possibility that TK1 T cells attached to a surface might also be able to take up the X-protein cell permeable peptide aa 16-22. TK1 cells were adhered to MAdCAM-1-coated glass slides or left to bind directly to the surface of the glass slides. Cells attached to the slides were incubated with the X-protein cell-permeable peptide aa 16-22 for 3 h in RPMI without FCS. Virtually all TK1 cells attached via α4β7 to MAdCAM-1 took up the peptide, whereas only 50 to 60% of cells directly attached to the glass slide took up the peptide (FIG. 27).

[1] = tested on: adherent monocytes and platelets; assay: Peptide uptake by adherent buffy coat cells; assay type: cell-based, human; conditions: 3 h, cells adhered to 8-chamber slides
Method: To determine whether this was a general feature of nonadherent cells, the ability of the peptide to enter non-adherent human peripheral blood mononuclear cells was examined. A buffy coat containing monocytes, lymphocytes, and platelets was isolated from 10 ml of human blood and incubated in 8-chamber slides for 3 h with the cell-permeable peptide aa 16-22 in RPMI medium without FCS.

Cos-1 kidney cell line = assay: Peptide uptake by other cell lines; assay type: cell-based, green monkey
Method: (§1) The cells were then incubated overnight at 37° and 5% CO2, and then washed thrice with media without FCS. The X-protein peptide in 250 μl of appropriate media without FCS was added to the cells at a final concentration of 10 μM, and the slides incubated for 3 h at 37° C. and 5% CO2. The cells were washed with PBS, fixed with 4% formaldahyde in PBS for 30 min, and washed thrice with PBS. […] The slides were dried overnight in the dark, and examined by microscopy by using a Nikon E600 fluorescent microscope. Photos were taken using Nikon ACT-1 software. For further examination, slides were then examined by confocal microscopy using a Leica TCS-SP2 confocal microscope.
(§2) The X-protein cell-permeable peptide aa 16-22 was tested for its ability to be taken up by other mammalian cell lines including the human C32 melanoma, DU145 prostate carcinoma, TK1 T cell lymphoma, H441 lung carcinoma, Rin-m5f rat pancreatic islet tumor and Cos-1/7 green monkey kidney cell lines. TK1 cells are suspension cells whereas all other cell lines are adherent cells. Cells were incubated with the fluoresceinated X-protein cell-permeable peptide 16-22 for 3 h in medium appropriate for that cell line in the absence of FCS. The HepG2 cell line was used as a positive control. The X-protein peptide was able enter all adherent cell lines regardless of type or source of the cell (FIGS. 22 and 23).

Cos-7 kidney cell line = assay: Peptide uptake by other cell lines; assay type: cell-based, green monkey
Method: as §1, §2

Row | Substance | overall level of the X-protein (X-protein) | tertiary structure of the X-protein (dimeric and higher order forms) (X-protein; listed as oligomerization domain peptide (aa 16-35)) | uptake by adherent TK1 T cells (adherent TK1 T cells; adhered to MAdCAM-1-coated glass slides or to the slides directly) | TK1 cells that took up the peptide (adherent TK1 T cells; attached via α4β7 to MAdCAM-1, 3 h) | TK1 cells that took up the peptide (adherent TK1 T cells; directly attached to the glass slide, 3 h) | uptake by adherent monocytes and platelets ([1]; listed as X-protein cell-permeable peptide 16-22) | uptake by adherent monocytes and platelets ([1]; listed as cell-permeable peptide aa 16-22) | entry into cells (Cos-1 kidney cell line; COS-1, 3 h) | uptake of the peptide, cells positive (Cos-1 kidney cell line; Cos-1, 3 h, no FCS) [% cells positive] | entry into cells (Cos-7 kidney cell line; COS-7, 3 h) | uptake of the peptide, cells positive (Cos-7 kidney cell line; Cos-7, 3 h, no FCS) [% cells positive]
1 | FITC-Acp-LCLRPVGAESRGRPVSGPFG [Peptide 16-35] | did not decrease the overall level of the X-protein | Disruption of the tertiary structure of the X-protein; also recorded: disrupts the tertiary structure of the X-protein, preventing dimerization and the formation of higher order structures |  |  |  |  |  |  |  |  | 
2 | FITC-LCLRPVG ({FITC}-LCLRPVG) [Peptide 16-22] |  |  | took up | Virtually all | 50 to 60 % of cells | able to enter adherent monocytes, and potentially adherent platelets | had taken up the peptide | taken up less efficiently | 60 to 70 | taken up less efficiently | 60 to 70
